The values that follow come from publication PMC4301871, “WW Domains of the Yes-Kinase-Associated-Protein (YAP) Transcriptional Regulator Behave as Independent Units with Different Binding Preferences for PPxY Motif-Containing Ligands” (PLoS ONE, 2015).

Experiment [1] concerns the target T1, YAP-WW1 (first WW domain of human YAP, residues 165–209) (Homo sapiens, UniProt P46937).
T1 construct: residues 165–209 for the first WW domain of human YAP (YAP-WW1); poly-histidine (N, cleaved yes); GST (N, cleaved yes); made in house; host or cells: E. coli BL21 (DE3)
The experiment is described as follows: Isothermal titration calorimetry of peptide ligands with isolated YAP-WW1. It counts as binding. The following applies: ITC, 25°C; for n (number of binding sites) / Kd: 40 mM sodium phosphate pH 7.0 (10 mM β-mercaptoethanol for LATS2), one set of identical sites model, at least two experiments; for n (number of binding sites): variability about 1%; for Kd: variability about 10%; for -T·ΔSap / ΔGap / ΔHap: pH 7.0, one set of sites model; for ΔHap: variability about 5%. As for the experimental part: (§1) ITC experiments were carried out using a high-precision VP-ITC titration calorimeter (Microcal Inc., Northampton, Massachusetts). The WW domains were extensively dialyzed against 40 mM sodium phosphate buffer, pH 7.0, with the exception of those experiments using the LATS2 ligand, (containing a cysteine residue), for which the dialysis was performed in the presence of 10mM β-mercaptoethanol to reduce intermolecular di-sulphide bonds formed during ligand storage. Protein and peptide solutions, ranging from 20 to 40 μM for the proteins and from 0.8 to 2 mM for the ligands, were properly degassed to avoid bubble formation and equilibrated to 25°C prior to the titration experiment. In all cases, a profile of injection volumes from 3 to 20 μl was used to better define the titration curve. The heat evolved after each peptide injection was obtained from the integral of the calorimetric signal. The heat associated with the binding process was obtained as the difference between the heat of reaction and the corresponding heat of dilution, as obtained from independent titrations of the peptides into the buffer.
(§2) For the individual WW domains and those ligands with similar binding affinities for YAP-WW1 and YAP-WW2 domains (LATS1-a and LATS2), the resulting binding isotherms were analyzed by non-linear least-squares fittings to a model corresponding to a single set of identical sites, according to the equation:
(§3) Q=V0ΔH/2Ka[1+Ka[Lt]+nKa[Mt]+(1+Ka[Lt]+nKa[Mt])^2−4nKa2[Mt][Lt]] (equation 2)
(§4) , where Q is the net heat of binding, n is the number of binding sites, ΔH is the change in the enthalpy due to the binding process, Ka is the association constant, V0 is the active cell volume, and [Mt] and [Lt] are the total concentrations of macromolecule and the ligand, respectively.
(§5) Both models were implemented in Origin 7.0 software (OriginLab Corporation, Northampton, MA). For the least-squares fit using the one set of sites model, the number of binding sites, the association constant, and the binding enthalpy were considered as floating parameters, while in the analysis with the two set of sites model, only the two association constants and the two binding enthalpies were left to float. All experiments were performed at least twice. Typically, the variability of the experimental values was estimated to be about 1% in the number of binding sites, 5% in the binding enthalpy and 10% in the binding affinity.
Background: In ITC the heat of successive injections is recorded.

Experiment [2] concerns the target T2, YAP-WW2 (second WW domain of human YAP, residues 228–271) (Homo sapiens, UniProt P46937).
T2 construct: residues 228–271 for the second WW domain (YAP-WW2); poly-histidine (N, cleaved yes); GST (N, cleaved yes); made in house; host or cells: E. coli BL21 (DE3)
Briefly: Isothermal titration calorimetry of peptide ligands with isolated YAP-WW2. The following applies: ITC, 25°C; for n (number of binding sites) / Kd: 40 mM sodium phosphate pH 7.0 (10 mM β-mercaptoethanol for LATS2), one set of identical sites model, at least two experiments; for n (number of binding sites): variability about 1%; for Kd: variability about 10%, n.b. = no binding detected; for -T·ΔSap / ΔGap / ΔHap: pH 7.0, one set of sites model; for ΔHap: variability about 5%. It counts as binding. As for the experimental part: as §1, §2, §3, §4, §5

Experiment [3] has as its target T3, YAP-WW1-WW2 tandem construct (human YAP residues 165–271) (Homo sapiens, UniProt P46937).
T3 construct: residues 165–271 for tandem construct (YAP-WW1-WW2); poly-histidine (N, cleaved yes); GST (N, cleaved yes); made in house; host or cells: E. coli BL21 (DE3)
The experiment is described as follows: Isothermal titration calorimetry of peptide ligands with the YAP-WW1-WW2 tandem. It counts as binding. The following applies: ITC, 25°C; for n (number of binding sites): 40 mM sodium phosphate pH 7.0 (10 mM β-mercaptoethanol for LATS2), binding model for one set of sites.

For the next experiment, the system named is YAP-WW1 domain. The experiment is described as follows: Phage ELISA of YAP-WW2-selected clones, displacement of p53BP2 from YAP-WW1. The following applies: YAP-WW1 compared with YAP-WW2. It is filed as binding, human. As for the experimental part:
The analysis of the binding preferences of the WW domains was performed by phage-display as previously described. Briefly, an N-term library in PIII was generated using a template derived from the pS2202d phagemid, containing the Erbin-PDZ domain kindly provided by Dr. Sachdev Sidhu (University of Toronto). The Erbin-PDZ sequence was removed by the introduction of four stop codons between the secretion signal and the linker required for the correct display of the library variants in the phage. A randomized sequence corresponding to a x5(L/P)PxYx5 peptide library containing the L/PPxY core motif for type 1 WW domains was subsequently introduced into the modified phagemid. The resulting library was then introduced into the SS320 strain by electroporation. The subsequent phage propagation led to 10^11 library diversity, which was isolated at 5 x 10^13 phages/ml in PBS-Tween (0.05%) buffer. The resulting library was then screened against immobilized GST-tagged YAP-WW2 domain (GST-YAP-WW2) in PBS, carrying out seven rounds of an iterative selection process. Single clones were chosen from round 3 to round 7 and tested for specific binding to the GST-YAP-WW2 by phage ELISA in a Tecan Infinite M200 instrument. […] The DNA from phages showing binding in the ELISA assay were used as PCR templates to amplify the peptide-encoding regions, which were then sequenced and analyzed.
(In general: An ELISA detects its analyte on a solid surface through an enzyme-linked reagent.)

The mark [4] stands for this setting: pH 7.0, binding model for one set of sites.
The mark [5] stands for this setting: pH 7.0, model of two different sets of sites, n fixed to 1 each, first set of sites (first line).
Setting [6] is: pH 7.0, model of two different sets of sites, n fixed to 1 each, second set of sites (second line).
Setting [7] is: pH 7.0, two sets of sites model, n fixed to 1, first set of sites.
[8] abbreviates: pH 7.0, two sets of sites model, n fixed to 1, second set of sites.

Read-outs that look alike come from different tables or passages of the source.

T3 sequence (P46937 165-271): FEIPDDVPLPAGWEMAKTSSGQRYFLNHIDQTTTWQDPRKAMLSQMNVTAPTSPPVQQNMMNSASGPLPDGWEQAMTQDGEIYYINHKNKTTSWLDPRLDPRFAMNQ
T1 sequence (P46937 165-209): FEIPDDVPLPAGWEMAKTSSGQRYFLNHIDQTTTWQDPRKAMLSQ
T2 sequence (P46937 228-271): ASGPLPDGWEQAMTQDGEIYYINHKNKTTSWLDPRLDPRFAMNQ

A word on the Kd: it is the constant that tells how readily two partners part at equilibrium. Turning to `CC(=O)N[C@@H](CC(N)=O)C(=O)N[C@@H](CCCNC(=N)N)C(=O)N[C@@H](CCC(N)=O)C(=O)N1CCC[C@H]1C(=O)N1CCC[C@H]1C(=O)N1CCC[C@H]1C(=O)N1CCC[C@H]1C(=O)N[C@@H](Cc1ccc(O)cc1)C(=O)N1CCC[C@H]1C(=O)N[C@@H](CC(C)C)C(=O)N[C@H](C(=O)N[C@@H](C)C(N)=O)[C@@H](C)O` [LATS1-a], the “n (number of binding sites)” value in experiment [1] stood at 0.96; in experiment [2] it was 1.09; in experiment [3], 2.04. Also, the equilibrium dissociation constant (Kd) came to 21.5 µM in experiment [1], 27 µM in experiment [2] (read-out: Kd) and 33.4 µM in experiment [3] (setting [4]). The “-T·ΔSap” value in experiment [1] came to 9.63 kcal/mol; in experiment [2], 12 kcal/mol; in experiment [3] (setting [4]), 11.1 kcal/mol. Further, the figures for the ΔGap in experiment [1], in experiment [2] and in experiment [3] (setting [4]) were -6.38 kcal/mol, -6.24 kcal/mol and -6.12 kcal/mol, respectively. Moreover, the ΔHap in experiment [1] is -16 kcal/mol; in experiment [2], -18.2 kcal/mol; in experiment [3] (setting [4]), -17.2 kcal/mol.
Turning to `CC(=O)N[C@@H](CCCNC(=N)N)C(=O)N[C@@H](Cc1ccc(O)cc1)C(=O)N[C@@H](CO)C(=O)N1CCC[C@H]1C(=O)N1CCC[C@H]1C(=O)N1CCC[C@H]1C(=O)N1CCC[C@H]1C(=O)N[C@@H](Cc1ccc(O)cc1)C(=O)N[C@@H](CO)C(=O)N[C@@H](CO)C(=O)N[C@@H](Cc1c[nH]cn1)C(=O)N[C@@H](CO)C(N)=O` [PTCH1-a], the “n (number of binding sites)” value in experiment [1] was 0.95; in experiment [2] it was 0.91. In addition, the dissociation constant Kd turned out to be 27.6 µM in experiment [1], 45.8 µM in experiment [2] (read-out: Kd), 24.7 µM in experiment [3] (setting [5]) and 47.4 µM in experiment [3] (setting [6]). Besides, the “-T·ΔSap” value is 9.3 kcal/mol in experiment [1], 9.82 kcal/mol in experiment [2], 6.33 kcal/mol in experiment [3] (setting [7]) and 12.1 kcal/mol in experiment [3] (setting [8]). Further, the ΔGap was -6.24 kcal/mol in experiment [1], -5.93 kcal/mol in experiment [2], -6.31 kcal/mol in experiment [3] (setting [7]) and -5.9 kcal/mol in experiment [3] (setting [8]). In addition, the ΔHap was -15.5 kcal/mol in experiment [1], -15.8 kcal/mol in experiment [2], -12.6 kcal/mol in experiment [3] (setting [7]) and -18 kcal/mol in experiment [3] (setting [8]).
On to Ac-YQGPPPPYPKHL-NH2 [LATS1-b], for which the “n (number of binding sites)” value in experiment [1] came out at 0.91; in experiment [2] it was 0.94. Besides, the Kd in experiment [1] was 3.7 µM; in experiment [2] (read-out: Kd), 33.9 µM; in experiment [3] (setting [5]), 4.8 µM; in experiment [3] (setting [6]), 31.9 µM. The “-T·ΔSap” value is 9.08 kcal/mol in experiment [1], 10.7 kcal/mol in experiment [2], 9.66 kcal/mol in experiment [3] (setting [7]) and 6.24 kcal/mol in experiment [3] (setting [8]). In addition, the ΔGap in experiment [1] was -7.41 kcal/mol; in experiment [2] it was -6.12 kcal/mol; in experiment [3] (setting [7]) it was -7.27 kcal/mol; in experiment [3] (setting [8]), -6.14 kcal/mol. In addition, the ΔHap in experiment [1] was -16.5 kcal/mol; in experiment [2] it was -16.8 kcal/mol; in experiment [3] (setting [7]), -16.9 kcal/mol; in experiment [3] (setting [8]), -12.4 kcal/mol.
Regarding Ac-EGLWPPPYRPRR-NH2 [PTCH1-b], in experiment [1], the “n (number of binding sites)” value stood at 1.09, the dissociation constant Kd was 13.2 µM, the “-T·ΔSap” value was found to be 11.3 kcal/mol and the ΔGap is -6.67 kcal/mol. In experiment [1], this compound displayed a ΔHap of -18 kcal/mol. Moreover, the Kd result in experiment [2] is “no interaction was detected and n.b”. Also, in experiment [3] (setting [4]), the “-T·ΔSap” value was found to be 12.6 kcal/mol, the dissociation constant (Kd) was 16.9 µM, the ΔGap was -6.52 kcal/mol and the ΔHap was -19.2 kcal/mol.
AGRPPPPPYPGPPL: the “Interaction with the two WW domains of YAP (ELISA binding experiments)” value with YAP-WW1 domain is “seems to interact similarly with the two WW domains of YAP”.
For the compound Ac-RRCPPPPYPKHL-NH2 [LATS2], in experiment [1], the “n (number of binding sites)” value was determined as 1.05; the affinity, expressed as Kd, was 7.1 µM; the “-T·ΔSap” value came out at 11.9 kcal/mol; the ΔHap is -18.8 kcal/mol. Moreover, in experiment [2], the “n (number of binding sites)” value amounted to 1.08, the “-T·ΔSap” value is 6.86 kcal/mol, the ΔGap was -6.96 kcal/mol and the ΔHap was -13.8 kcal/mol. The Kd in experiment [2] (read-out: Kd) was found to be 8.2 µM. In addition, the “n (number of binding sites)” value in experiment [3] was determined as 2.02. Also, in experiment [3] (setting [4]), the “-T·ΔSap” value is 9.56 kcal/mol, the equilibrium dissociation constant (Kd) came to 9.2 µM, the ΔGap was -6.88 kcal/mol and the ΔHap is -16.4 kcal/mol.
